Reference: patent US20210308034A1, “PREBIOTIC COMPOSITIONS AND METHODS FOR MAINTAINING A HEALTHY SKIN MICROBIOTA” (KIMBERLY-CLARK WORLDWIDE, INC., priority 2018, published 2021)

Key:
Assay type in all cases: cell-based
[1] = system: Pseudomonas aeruginosa (ATCC 9027); conditions: Pathogenic; carbon microarray plate, OD 600 nm, 36 hr, 33° C.; positive = more than 0.05 OD units above zero; blank cell = not utilized
Description: (§1) After creating desired ratios of various commensal skin bacteria in a healthy skin microbiome, 188 different carbohydrate sources were screened as the next step in determining potential prospects for skin microbiota balancing agents. The screening process was set up to determine which carbohydrate sources promoted commensal and/or pathogenic bacteria as well as to obtain individual and combinations of carbohydrate sources that could serve as microbiota balancing agents that can support or maintain the healthy proportions of commensal skin bacteria of Corynebacterium, Staphylococcus, and Micrococcus. The screening was conducted utilizing Biolog phenotype microarray plates (Hayward, Calif.). Table 1 provides a coded list of the commensal and pathogenic skin bacteria that the carbohydrates were screened against.
(§2) The Bacteria Codes B, D, E, I, and J are commensal bacteria and are shaded in Table 2 for references purposes. The bacteria codes were each placed in a carbon microarray plate and screened through the Carbohydrate Screening Test Method, as described in the Test Methods section herein. If a particular bacteria code utilized a specific carbohydrate source as described in the Carbohydrate Screening Test Method, then the corresponding cell in Table 2 was marked with a Y (short for “Yes”).
(§3) The study employed 10 representative skin bacteria; Staphylococcus epidermidis ATCC 14990, Staphylococcus epidermidis M23864:W2, Staphylococcus aureus ATCC 6538, Staphylococcus aureus ATCC 25904 (Newman), Pseudomonas aeruginosa ATCC 9027, Micrococcus luteus ATCC […], Micrococcus luteus SK58, Klebsiella pneumoniae ATCC BAA-2146, Corynebacterium amycolatum SK46, and Corynebacterium minutissimum ATCC 23348. Cultures were started from freezer bead stocks by placing a single bead into 20 mL of tryptic soy broth (TSB) for all organisms except C. amycolatum SK46 and C. minutissimum ATCC 23348, which were placed into brain heart infusion (BHI) broth. Cultures were grown for about 24 hr at 37° C. except M. luteus ATCC 49732 and M. luteus SK58, which were grown at 30° C. A passage of the culture was made using a sterile swab and streaked onto two M9*2 agar plates to prepare the incubated culture for the phenotype microarray pate according to Table 4. Plates were incubated for about 24 hr at 37° C. except for M. luteus ATCC 49732 and M. luteus SK58, which were incubated at 30° C. for 24 hr.
(§4) All cultures were harvested and washed before inoculation into the carbon microarray plate (BiOLOG, Hayward Calif.), with Biolog Plates PM1 and PM2 each having a source definition of Carbon. The bacteria on the M9*2 agar was suspended via agitation with an inoculating loop in 1 mL of M9*1 media for collection in a 1.7 mL micro centrifuge tube, as noted in Table 4. The bacteria was suspended again in M9*1 media, agitated, and collected into the same 1.7 mL microcentrifuge tube used in the previous step. The tube was centrifuged for 5 minutes at 4,000×G, supernatant decanted, the pellet was resuspended in 1 mL of M9*1 media, and vortex. This washing process was repeated for a total of 4 times.
A tenfold dilution in M9*1 media was performed using 1 mL of the washed bacterial culture. Of the tenfold dilution 200 μL was placed in an untreated 96-well plate (Falcon, Pasadena Tx.) for an initial optical density (OD) reading at a wavelength of 600 nm. The OD was used to correlate to colony forming units (CFU) per milliliter by using linear regression lines for each organism.

[2] = system: Klebsiella pneumoniae (ATCC BAA-2146); conditions: Pathogenic; carbon microarray plate, OD 600 nm, 36 hr, 33° C.; positive = more than 0.05 OD units above zero; blank cell = not utilized
Description: as §1
Table 2 provides the results of screening various carbohydrate sources against the commensal and pathogenic bacteria codes listed in Table 1. The Bacteria Codes B, D, E, I, and J are commensal bacteria and are shaded in Table 2 for references purposes. The bacteria codes were each placed in a carbon microarray plate and screened through the Carbohydrate Screening Test Method, as described in the Test Methods section herein. If a particular bacteria code utilized a specific carbohydrate source as described in the Carbohydrate Screening Test Method, then the corresponding cell in Table 2 was marked with a Y (short for “Yes”). […] Many of the carbohydrate sources were utilized by both commensal and pathogenic bacteria, and as such, would not provide an advantage for selective growth of the commensal bacteria. However, some of the carbohydrate sources were only used by commensal bacteria and were identified for further testing as described herein.
as §3, §4
A tenfold dilution in M9*1 media was performed using 1 mL of the washed bacterial culture. Of the tenfold dilution 200 μL was placed in an untreated 96-well plate (Falcon, Pasadena Tx.) for an initial optical density (OD) reading at a wavelength of 600 nm. The OD was used to correlate to colony forming units (CFU) per milliliter by using linear regression lines for each organism. […]

[3] = system: Corynebacterium jeikum (ATCC 33033); test: Carbohydrate Screening Test Method (Biolog phenotype microarray), Bacteria Code B
Experimental: The screening process was set up to determine which carbohydrate sources promoted commensal and/or pathogenic bacteria as well as to obtain individual and combinations of carbohydrate sources that could serve as microbiota balancing agents that can support or maintain the healthy proportions of commensal skin bacteria of Corynebacterium, Staphylococcus, and Micrococcus. The screening was conducted utilizing Biolog phenotype microarray plates (Hayward, Calif.). Table 1 provides a coded list of the commensal and pathogenic skin bacteria that the carbohydrates were screened against.
as §2
To do so, the respective microarray data for the 79 carbohydrate sources was run through the GrowthRates 2.1 program to obtain growth parameters, such as growth rates and maximum yield data as described by the Belingham Research Institute, Hall, B. G., H. Acar and M. Barlow. […] Mol. Biol. Evol. […] The max yield parameters generated were utilized to calculate ratios of tested commensal bacteria. The ratios calculated were compared back to the desired ratios identified above (Corynebacterium to Staphylococcus of 1.3, Corynebacterium to Micrococcus of 1.4, and Staphylococcus to Micrococcus of 1.1).
(§5) As an example of this methodology used to calculate the commensal bacteria ratios and the difference between the calculated ratios and the desired ratios, an example code from Table 3 will be described. […] The max yields were then used to calculate ratios the bacteria would reach in a co-culture.
A passage of the culture was made using a sterile swab and streaked onto two M9*2 agar plates to prepare the incubated culture for the phenotype microarray pate according to Table 4.
All cultures were harvested and washed before inoculation into the carbon microarray plate (BiOLOG, Hayward Calif.), with Biolog Plates PM1 and PM2 each having a source definition of Carbon. The bacteria on the M9*2 agar was suspended via agitation with an inoculating loop in 1 mL of M9*1 media for collection in a 1.7 mL micro centrifuge tube, as noted in Table 4.

[4] = system: Micrococcus luteus (SK58); test: Carbohydrate Screening Test Method (Biolog phenotype microarray), Bacteria Code E; conditions: Commensal; carbon microarray plate, OD 600 nm, 36 hr, 33° C.; positive = more than 0.05 OD units above zero; blank cell = not utilized
Description: as §1, §2
To do so, the respective microarray data for the 79 carbohydrate sources was run through the GrowthRates 2.1 program to obtain growth parameters, such as growth rates and maximum yield data as described by the Belingham Research Institute, Hall, B. G., H. Acar and M. Barlow. 2014 Growth Rates Made Easy. Mol. Biol. Evol. 31:232-238 doi:10.1093/molbev/mst197. The max yield parameters generated were utilized to calculate ratios of tested commensal bacteria. The ratios calculated were compared back to the desired ratios identified above (Corynebacterium to Staphylococcus of 1.3, Corynebacterium to Micrococcus of 1.4, and Staphylococcus to Micrococcus of 1.1).
as §5

[5] = Commensal, carbon microarray plate, OD 600 nm, 36 hr, 33° C., positive = more than 0.05 OD units above zero, blank cell = not utilized

Row | Structure (SMILES) | Carbohydrate Screening Results, Bacteria Code F [1] | Carbohydrate Screening Results, Bacteria Code C [2] | Carbohydrate Screening Results, Bacteria Code B [3, 5] | Carbohydrate Screening Results, Bacteria Code E [4] | Carbohydrate Screening Results, Bacteria Code B ([3]; ATCC33033, 36 h)
1 | CCCC(=O)O [Butyric Acid] | Y | – | – | – | –
2 | CCCCCCCCCC(=O)O [Capric Acid] | Y | – | – | – | –
3 | CCCCCC(=O)O [Caproic Acid] | Y | – | – | – | –
4 | CC(O)(CC(=O)O)C(=O)O (stereo not drawn) [Citramalic Acid] | Y | – | – | – | –
5 | OC[C@@H](O)C(O)[C@H](O)CO [D-Arabitol] | Y | Y | – | – | –
6 | O=C1O[C@@H]([C@H](O)CO)[C@H](O)[C@H]1O [D-Galactonic Acid-γ-Lactone] | Y | Y | – | – | –
7 | N[C@H]1C(O)O[C@H](CO)[C@@H](O)[C@@H]1O (stereo partly drawn) [D-Glucosamine] | Y | Y | – | – | –
8 | O=P(O)(O)O[C@H]1O[C@H](CO)[C@@H](O)[C@H](O)[C@H]1O [D-Glucose-1-Phosphate] | – | Y | Y | Y | –
9 | OC[C@H]1O[C@H](OC[C@H]2O[C@H](O[C@]3(CO)O[C@H](CO)[C@@H](O)[C@@H]3O)[C@H](O)[C@@H](O)[C@@H]2O)[C@H](O)[C@@H](O)[C@H]1O [D-Raffinose] | – | Y | – | – | –
10 | O=C[C@H](O)[C@@H](O)[C@H](O)CO [D-Xylose] | Y | Y | – | – | –
11 | C=C(CC(=O)O)C(=O)O [Itaconic Acid] | Y | – | – | – | –
12 | O=C[C@H](O)[C@@H](O)[C@@H](O)CO [L-Arabinose] | Y | Y | – | – | –
13 | NC(=O)C[C@H](N)C(=O)O [L-Asparagine] | Y | – | Y | – | –
14 | N[C@@H](CC(=O)O)C(=O)O [L-Aspartic Acid] | – | Y | Y | – | –
15 | C[C@H](O)[C@@H](O)[C@@H](O)[C@H](O)C=O [L-Fucose] | – | Y | Y | Y | –
16 | O=C1O[C@H]([C@@H](O)CO)[C@@H](O)[C@@H]1O [L-Galactonic Acid-γ-Lactone] | – | Y | Y | – | –
17 | N[C@@H](CCC(=O)O)C(=O)O [L-Glutamic Acid] | Y | – | – | – | Y
18 | NC(=O)CC[C@H](N)C(=O)O [L-Glutamine] | – | Y | Y | – | –
19 | N[C@@H](Cc1c[nH]cn1)C(=O)O [L-Histidine] | Y | Y | – | – | –
20 | O=C1CC[C@@H](C(=O)O)N1 [L-Pyroglutamic Acid] | Y | – | – | – | –
21 | C[C@H](O)[C@H](O)[C@@H](O)[C@@H](O)C=O [L-Rhamnose] | – | Y | Y | Y | –
22 | O=C(O)[C@H](O)[C@@H](O)C(=O)O [L-Tartaric Acid] | Y | Y | – | – | –
23 | OC[C@@H](O)[C@@H](O[C@H]1O[C@H](CO)[C@@H](O)[C@H](O)[C@H]1O)[C@H](O)[C@@H](O)CO [Maltitol] | Y | Y | – | – | –
24 | O=C(O)[C@H](O)[C@@H](O)[C@H](O)[C@H](O)CO[C@H]1O[C@H](CO)[C@H](O)[C@H](O)[C@H]1O [Melibionic Acid] | – | Y | – | – | –
25 | O=C(O)[C@]1(O)C[C@@H](O)[C@@H](O)[C@H](O)C1 [Quinic Acid] | Y | Y | – | – | –
26 | O=C(O)Cc1cccc(O)c1 [m-Hydroxy Phenyl Acetic Acid] | – | Y | – | – | –
27 | O[C@H]1[C@H](O)[C@@H](O)[C@H](O)[C@@H](O)[C@H]1O [m-Inositol] | – | Y | Y | Y | –
28 | COC1OC(CO)C(O)C(O)C1O [α-Methyl-D-Galactoside] | – | Y | Y | Y | –
29 | CO[C@@H]1O[C@H](CO)[C@@H](O)[C@H](O)[C@H]1O [β-Methyl-D-Galactoside] | Y | Y | – | – | –
